The source of these data is US7033829B2, “Method to inhibit cell growth using oligonucleotides” (Trustees of Boston University, priority 2000, dated 2006).

Oligonucleotides are written 5' to 3', each unit as a sugar letter and its base; * is a phosphorothioate linkage, no mark a phosphodiester; rarer units and linkages stand in square brackets, end groups in braces. Plain capitals give the bases only. d = 2'-deoxy (DNA); {P} = phosphate

Data set [1] in a line: Skin penetration of fluorescently-labeled oligonucleotides (ear). The format is in vivo, Mice. Particulars: in propylene glycol, 4 hours. How it is done: The compounds of the present invention were tested for skin penetration and in vivo melanogenic activity. Mice were treated (on their ears) with fluorescently-labeled pTpT or SEQ ID NO: 1 (comprising a 5′ phosphate) in propylene glycol for 4 hours, then ear skin was sectioned and examined by confocal microscopy. […] Thus pTpT and SEQ ID NO: 1 comparably penetrate the skin barrier.

In data set [2] the test system is melanin in ear skin. Put plainly: In vivo melanogenic activity on ears (Fontana Masson). More on the design: species or system mice. Particulars: 100 μM once daily in propylene glycol; 15 days. How it is done:
In another experiment, mice were treated once daily with either 100 μM pTpT or SEQ ID NO: 1 containing a 5′ phosphate in propylene glycol on one ear, or vehicle alone on the other ear. After 15 days, when the ears were sectioned and stained with Fontana Masson to detect melanin compared to vehicle controls, there was a 70% increase in pigmentation in pTpT-treated ears and a 250% increase with SEQ ID NO: 1. Thus, both compounds comprising as few as 2 and as many as 9 nucleotides are effective at producing the in vitro UV-mimetic effects in vivo.

In data set [3] the test system is Apurinic Endonuclease-1 (APE-1). The data set is described as follows: APE-1 western blot in fibroblasts. It counts as cell-based, human. Particulars: 100 μM pTpT; 10 μM or 60 μM SEQ ID NO:5; within 24 hours, sustained at least 48 hours. How it is done:
Fibroblasts (human newborn) were maintained in 10% CS-supplemented DMEM containing 100 μM pTpT, 10 μM or 60 μM oligonucleotide pGTTAGGGTTAG (SEQ ID NO:5), or diluent as control. Total cellular proteins were harvested at different intervals after supplementation and processed for western blot analysis. Expression of APE-1, the rate-limiting enzyme in repair of 8-oxoguanine (the principal form of oxidative DNA damage) was studied. The blot was incubated with anti APE-1 antibodies (APE/Ref-1 monoclonal IgG2b, Novus Biologicals, Inc. Littleton, Colo.). Within 24 hours of supplementation with pTpT or the 11mer oligonucleotide having nucleotide sequence SEQ ID NO:5, the 37 kDa APE-1 protein was induced in samples stimulated with the oligonucleotides as compared to diluent control. The induction was sustained for at least 48 hours, when the experiment was terminated. Coomassie blue-stained residual bands on the gel confirmed uniform loading of the different lanes.
(In general: In western blotting, separated proteins are transferred to a membrane and probed.)

Data set [4] concerns mouse skin. Put plainly: Photodamage of UVB-irradiated XPA+/+ and XPA−/− mouse skin. It counts as in vivo. Particulars: XPA−/− mice; 72 hours after last UV (diluent 15±5). The text has this: Patients with a mutated xeroderma pigrnentosum group A (XPA) gene have a greater than 1000 fold increased risk of UV-induced skin cancer. XPA^−/− mice mimic the human syndrome [Kraemer, K. et al., pp. 256–261 In: Molecular Biology of Aging (Bohr, V. A., et al., eds.) Munksgaard, Copenhagen, 1999]. We have previously shown that oligonucleotides, particularly thymidine dinucleotide (pTT) and pGAGTATGAG (SEQ ID NO:1) that are partial homologs of the telomere overhang tandem repeat TTAGGG (SEQ ID NO:11), increase levels of proteins involved in nucleotide excision repair and enhance the DNA repair rate. […] The mice were UV irradiated on day 5 with a previously determined erythemogenic UVB dose. […] Seventy-two hours after the last dose of […], the mouse skin was processed histologically to assess general morphology, proliferation (Ki-67) [Ohike N. and T Morohoshi, Pathol Int (2001), 51:770–777; Billgren, A. M. et al., Breast Cancer Res Treat (2002), 71:161–170], cyclobutane pyrimidine dimers (CPDs) determined by specific antibody binding, and on-going DNA repair [proliferating cell nuclear antigen (PCNA); see Savio, M. et al., Carcinogenesis (1998) 19:591–596; Rudolph, P. et al., Hum Pathol (1998) 29:1480–1487].

In data set [5] the test system is SCC12F cells. The data set is described as follows: FACS cell cycle analysis of SCC12F cells. The format is cell-based, human. The conditions noted are these: for cells in the S phase / S-phase arrest: 48 hours (control 26%). As for the experimental part:
However, when increasing concentrations of the phosphorothioate 11mer-1 were also added to these cultures, fewer cells became arrested (FIGS. 21A–21G).
Exposure of keratinocytes to UVB irradiation affects the expression of genes involved in cell cycle arrest, DNA repair and cytokine production. Single-stranded oligonucleotides sharing sequence homology with the telomere 3′ overhang, when introduced into cells, mimic these UV effects. To identify other genes that may be similarly modulated, cells of keratinocyte origin (SCC12F; a human epidermal squamous cell carcinoma line provided by Dr. James Rheinwald of Harvard University) were exposed to solar simulated irradiation (SSR) (20 mJ/cm^2, measured at 285±5 nm), to an 11-base oligonucleotide (pGTTAGGGTTAG; SEQ ID NO:5) homologous to the telomere overhang (T-oligo), or to a complementary sequence as control [pCTAACCCTAAC; (SEQ ID NO:9) control oligonucleotide]. […] These are mitochondrial-transcribed genes whose encoded proteins participate in cellular respiration.
In order to determine whether these oligonucleotides similarly affect other human cell types and to investigate the role of p53, we treated a squamous cell carcinoma line (SCC12F) (Rheinwald, J. G., et al., 1983, Human carcinogenesis. pp. 86–96. Academic Press (New York)) that over-expresses a presumptively mutated p53 (Eller, M. S. and B. A. Gilchrest. 2000, Pigment Cell Res. 13: 94–97) and a p53-null osteosarcoma cell line (Saos-2) (Wang, L. H., et al., 1998, Anticancer Res 18: 321–325) with either diluent alone, 11mer-1, 11mer-2 or 11mer-3. Cultures were analyzed by FACS after 48 hours (FIGS. 33A–33H). […] Although the percentage of cells in the S-phase in 11mer-1-treated SCC12F and Saos-2 cells was virtually identical (53±6% and 52±1%, respectively), the G0/G1 and G2/M content of the two cell types were somewhat different. This may reflect differential uptake of the oligonucleotide leading to dose-dependent differences, and/or different pathways acting in these cells to control the cell cycle. No apoptotic response to the oligonucleotides was detected in either cell type within 72 hours.

thymidine dinucleotide [pTpT]: in data set [1], the “skin penetration (confocal microscopy)” value was “brightly stained epidermis and hair follicles”. In addition, in data set [2], the “increase in pigmentation compared to vehicle controls” value is 70%. Besides, in data set [3], the APE-1 protein result is on record as “induced”. The “CPD (+) cells per 400× microscopic field” value in data set [4] was “none”.

In the case of “pGAGTATGAG (DNA, 5' {P}, backbone not given here) [SEQ ID NO: 1]”, in data set [1], the “skin penetration (confocal microscopy)” value was “brightly stained epidermis and hair follicles”. Besides, the “increase in pigmentation compared to vehicle controls” value in data set [2] is on record as 250%. Moreover, the “CPD (+) cells per 400× microscopic field” value in data set [4] is recorded as “none”.

Regarding “pGTTAGGGTTAG (DNA {P}-dGdTdTdAdGdGdGdTdTdAdG) [SEQ ID NO: 5]”, in data set [5] (40 μM, 48 hours), the “cells in the S-phase” value came out at 53±6%. The “cells in the S phase / S-phase arrest” value in data set [5] is reported as “Forty-three precent”. Further, the “cells arrested in the S-phase” value in data set [5] (Example 27 (control cells <23%)) was above 43%. Besides, the APE-1 protein entry in data set [3] is listed as “induced”.

With “11mer-1-S: phosphorothioate 11mer-1 (dG*dT*dT*dA*dG*dG*dG*dT*dT*dA*dG; further chemistry not fully specified)”, in data set [5], the “cells in the S phase / S-phase arrest” value is recorded as “did not induce the S-phase arrest”.
